This note sets out measurements from US12617759B2, “Modifier of four-membered ring derivative, preparation method and application thereof” (Shanghai Hansoh Biomedical Co., Ltd., priority 2019, dated 2026).

As usually defined, the EC50 is the concentration at which the effect is half-maximal. As usually defined, the IC50 is the point on the concentration scale where inhibition reaches its midpoint.

SMILES strings stand for the structures.

Data set [1] in a line: Stability in dog liver microsome in vitro. In kind it is in vitro ADME. The note with it: for half-life at 1 μM / microsomal CLint at 1 μM: dog liver microsomes, pH 7.4, 1 μM compound, NADPH/UDPGA; for half-life at 1 μM: read-out: Half life (t1/2); for microsomal CLint at 1 μM: read-out: Intrinsic clearance rate (CLint). As for the experimental part: (§1) To evaluate the metabolic stability of the compounds of the present invention in liver microsome in vitro.
(§2) Formulation of the working solution of the compound: 2 μL of the stock solution of the compound was added to 998 μL of phosphate buffer, and the final concentration was 20 μM.
(§3) 78.1 μL of 20 mg/mL microsome was diluted to 2.5 mL with 100 mM phosphate buffer and mixed well, and the final concentration was 0.625 mg/mL.
(§4) 33.3 mg of NADPH and 25.8 mg of UDPGA were weighed respectively, followed by the addition of 2 mL of 100 mM phosphate buffer. The final concentrations were 20 mM.
(§5) 1 mg of Alamethicin was weighed, to which 200 μL of DMSO was added to obtain a 5 mg/mL solution. 10 μL of this solution was added to 990 μL of phosphate buffer (pH 7.4), and the final concentration was 50 μg/mL.
(§6) 400 μL of the formulated liver microsome, 25 μL of the working solution of the compound (10 μM) and 25 μL of Alamethicin (50 μg/mL) were added to a 96-well plate successively, which was then pre-incubated at 37° C. for 10 min. 50 μL of the formulated NADPH/UDPGA was added to initiate the reaction, and the plate was incubated at 37° C. The total volume of the reaction system was 500 μL. The final contents of the components are as follows:
(§7) […] The resulting sample was centrifuged at 4000 g for 10 min, and the supernatant was collected for LC-MS/MS analysis.

The nature of data set [2]: Stability in rat liver microsome in vitro. Conditions: for half-life at 1 μM / microsomal CLint at 1 μM: SD, rat liver microsomes, pH 7.4, 1 μM compound, NADPH/UDPGA; for half-life at 1 μM: read-out: Half life (t1/2); for microsomal CLint at 1 μM: read-out: Intrinsic clearance rate (CLint). It is filed as in vitro ADME, SD rat. The protocol: as §1, §2, §3, §4, §5, §6, §7
Background: Liver microsomes are a subcellular fraction often used to study metabolism.

Data set [3] can be described thus: Stability in human liver microsome in vitro. In kind it is in vitro ADME. The note with it: for half-life at 1 μM / microsomal CLint at 1 μM: human liver microsomes, pH 7.4, 1 μM compound, NADPH/UDPGA; for half-life at 1 μM: read-out: Half life (t1/2); for microsomal CLint at 1 μM: read-out: Intrinsic clearance rate (CLint). The protocol: as §1, §2, §3, §4, §5, §6, §7

In a further data set the target is T1, D3 receptor (Homo sapiens, UniProt P35462).
T1 construct: expressed in transfected cells; host or cells: CHO (CHO-D3, G418 selection)
T1 sequence (P35462 whole entry): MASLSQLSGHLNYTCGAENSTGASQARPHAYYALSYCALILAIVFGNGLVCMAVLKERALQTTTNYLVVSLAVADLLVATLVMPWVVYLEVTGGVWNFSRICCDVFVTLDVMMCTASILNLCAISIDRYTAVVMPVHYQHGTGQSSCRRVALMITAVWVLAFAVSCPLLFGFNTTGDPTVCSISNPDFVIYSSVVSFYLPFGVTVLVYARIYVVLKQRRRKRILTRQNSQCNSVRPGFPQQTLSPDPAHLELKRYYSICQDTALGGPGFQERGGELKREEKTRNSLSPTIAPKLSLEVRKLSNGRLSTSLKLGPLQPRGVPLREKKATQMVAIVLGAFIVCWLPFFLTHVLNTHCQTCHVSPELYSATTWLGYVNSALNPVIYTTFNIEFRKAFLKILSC
Nature of the data set: cAMP content in cells stably expressing D3 receptors (CHO-D3). It is filed as cell-based. Conditions: forskolin, agonistic activity. As for the experimental part: To determine the activation effect of the compounds on D3 receptor.
3. Experimental Method: • 1. Preparation of the buffer: 1*HBSS+20 mM HEPES+0.1% BSA+500 μM IBMX. • Complete medium: Ham's F12K+10% fetal bovine serum+1*penicillin-streptomycin+400 µg/mL G418. • 2. CHO-D3 cells were cultured in the complete medium at 37° C., 5% C02. After TrypLE digestion, the cells were resuspended in the experimental buffer, and seeded into a 384-well cell culture plate at a seeding density of 8000 cells per well. • 3. The experimental buffer (1*HBSS, 0.1% BSA, 20 mM HEPES and 500 μM IBMX) was prepared. The compound was diluted with the buffer. 2.5 μL of the compound solution was added to each well, and the plate was incubated at 37° C. for 10 minutes. The forskolin was diluted to 8 μM (8*) with the experimental buffer. 2.5 μL of the diluted 8*forskolin was added, and the plate was incubated at 37° C. for 30 minutes. cAMP-d2 and Anti-cAMP-Eu^3+ were thawed, and diluted by 20-fold with the lysis buffer. 10 μL of cAMP-d2 was added to the experimental well, followed by the addition of 10 μL of Anti-cAMP-Eu^3+. The reaction plate was centrifuged at 200 g for 30 s at room temperature, and left to stand at 25° C. for 1 h. Data was collected using Envision. 4. […]

The target of data set [4] is T2, 5-HT2A receptor (Homo sapiens, UniProt P28223). Nature of the data set: Calcium ion mobility in cells stably expressing 5-HT2A receptors (Flp-In-CHO-5HT2A, FLIPR). It is filed as cell-based. The arrangement: expressed in transfected cells. Conditions: Flp-In-CHO-5HT2A stable pool, inhibition of 5HT response. The protocol:
To determine the inhibitory effect of the compounds on 5-HT2A receptor.
3. […] Probenecid and BSA were added fresh on the day of the experiment. […] 4. Experimental Data Processing Method:
The calcium signal values were determined by FLIPR. The calculated output for each sampling time point in the experiment was the ratio of the 340/510 nm wavelength signals to 380/510 nm wavelength signals. The maximum minus minimum calculation was derived from the ratio signal curve. The percent inhibition rate and ten-point concentration data were fitted to the parametric nonlinear logistic equation by using GraphPad prism to calculate the IC50 values of the compound.

The target of data set [5] is T2, 5-HT2A receptor. Nature of the data set: Radioligand binding assay, 5-HT2A receptor ([3H]-Ketanserin). The arrangement: purchased PerkinElmer. The note with it: human 5-HT2A receptor membrane, read-out: 5HT-2A Binding IC50. As for the experimental part: The objective of this test example is to determine the affinity of the compounds for 5-HT2A receptor.
(§8) 0.5 to 5 μL of the test compounds (0.005 nM to 100 nM, 10 concentrations in total) and 100 μL of buffer were added to a 96-well assay plate. 0.5 μL of cell membrane and 300 μL of buffer were added to each well. [^3H]-Ketanserin was added to the buffer, and the plate was incubated at 27° C. for 30 min. The […]-96 GF/B filter plate pre-incubated with 0.5% PEI for 1 h was washed twice with the buffer (1 mL/well). The cell membrane suspension was added to the […]-96 GF/B filter plate, washed 4 times, and incubated at 55° C. for 10 min. 40 μL of ULTIMA GOLD was added to each well, and liquid scintillation counting was carried out.
(§9) The CPM (Counts per minute) values were determined by TopCount. […] The 10 concentrations of the compound were from 100 nM to 0.005 nM after 3-fold dilution of the reaction system. The percent inhibition rate and ten-point concentration data were fitted to the parametric nonlinear logistic equation by using GraphPad prism to calculate the IC50 values of the compound.

Data set [6] has as its target T3, Human Dopamine D3 Receptor membrane (Homo sapiens, UniProt P35462).
T3 construct: purchased PerkinElmer ES-173-M400UA
Nature of the data set: Radioligand binding assay, dopamine D3 receptor ([3H]-methylspiperone). The protocol:
The objective of this test example is to determine the affinity of the compounds for dopamine D3 receptor.
as §8, with “[^3H]-methylspiperone” for “[^3H]-Ketanserin”
as §9

T2 sequence (P28223 whole entry): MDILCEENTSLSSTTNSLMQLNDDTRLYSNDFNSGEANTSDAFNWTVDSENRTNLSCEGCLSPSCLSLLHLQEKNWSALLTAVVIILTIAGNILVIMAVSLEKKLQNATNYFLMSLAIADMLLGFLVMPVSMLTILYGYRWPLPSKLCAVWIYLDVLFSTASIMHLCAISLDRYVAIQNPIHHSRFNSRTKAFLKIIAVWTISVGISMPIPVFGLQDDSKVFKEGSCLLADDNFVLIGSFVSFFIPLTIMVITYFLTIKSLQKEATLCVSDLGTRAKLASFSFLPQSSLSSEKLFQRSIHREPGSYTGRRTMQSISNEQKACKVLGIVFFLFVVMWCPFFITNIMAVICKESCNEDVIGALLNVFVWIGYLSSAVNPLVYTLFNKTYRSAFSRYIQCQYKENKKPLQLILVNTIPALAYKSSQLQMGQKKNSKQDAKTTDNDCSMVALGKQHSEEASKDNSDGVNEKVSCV
T3 sequence (P35462 whole entry): as the sequence (P35462 whole entry) above

Regarding `CN(C)C(=O)N[C@H]1CC[C@H](CCN2CCN(c3cccc(Cl)c3Cl)CC2)CC1` [Cariprazine, reference compound], in data set [1], the “Remaining (%, 120 min)” value stood at 21.4%; the half-life at 1 μM was determined as 50.1 min; the microsomal CLint at 1 μM came to 27.7 µL/min/mg. Further, in data set [2], the “Remaining (%, 120 min)” value was found to be 19.1%; the half-life at 1 μM amounted to 52.7 min; the microsomal CLint at 1 μM was found to be 26.3 µL/min/mg. In data set [3], the “Remaining (%, 120 min)” value was 34.4%; the half-life at 1 μM was determined as 77.2 min; the microsomal CLint at 1 μM worked out at 18 µL/min/mg.

For `CN(C)C(=O)NC1CC(CCN2CCN(c3cccc4sccc34)CC2)C1` (stereo not drawn) [Example 6, 3-(3-(2-(4-(Benzo[b]thiophen-4-yl)piperazin-1-yl)ethyl)cyclobutyl)-1,1-dimethylurea], in data set [3], the “Remaining (%, 120 min)” value was determined as 61.2%; the half-life at 1 μM came to 76.3 min; the microsomal CLint at 1 μM amounted to 45.4 µL/min/mg.

Compound `CC(C)(O)C(=O)N[C@H]1C[C@H](CCN2CCN(c3cccc(Cl)c3Cl)CC2)C1` [Example 11A] came in with an EC50 on D3 receptor of 0.4 nM. Moreover, the results for the IC50 (on 5-HT2A receptor [4]; on 5-HT2A receptor [5]; in data set [6]) were 39 nM, 41.5 nM and 0.95 nM, respectively.

As for `O=C(NC1CC(CCN2CCN(c3cccc(Cl)c3Cl)CC2)C1)C1(O)CC1` (stereo not drawn) [Example 13, N-(3-(2-(4-(2,3-Dichlorophenyl)piperazin-1-yl)ethyl)cyclobutyl)-1-hydroxycyclopropane-1-carboxamide], in data set [3], the “Remaining (%, 120 min)” value was 63.0%; the half-life at 1 μM amounted to 93.3 min; the microsomal CLint at 1 μM amounted to 37.2 µL/min/mg.

As to `O=C(N[C@H]1C[C@H](CCN2CCN(c3cccc(Cl)c3Cl)CC2)C1)C1(O)CC1` [Example 13A, N-(Trans-3-(2-(4-(2,3-dichlorophenyl)piperazin-1-yl)ethyl)cyclobutyl)-1-hydroxycyclopropane-1-carboxamide], in data set [3], the “Remaining (%, 120 min)” value is reported as 53.3%; the half-life at 1 μM worked out at 139 min; the microsomal CLint at 1 μM is 10 µL/min/mg.

Regarding `CC(C)(O)CC(=O)NC1CC(CCN2CCN(c3cccc(Cl)c3Cl)CC2)C1` (stereo not drawn) [Example 15, N-(3-(2-(4-(2,3-Dichlorophenyl)piperazin-1-yl)ethyl)cyclobutyl)-3-hydroxy-3-methylbutanamide], in data set [3], the “Remaining (%, 120 min)” value was 79.5%; the half-life at 1 μM came out at 189 min; the microsomal CLint at 1 μM worked out at 18.3 µL/min/mg.

Consider `O=C(N[C@H]1C[C@H](CCN2CCN(c3cccc(Cl)c3Cl)CC2)C1)c1ncco1` [Example 20A, N-(Trans-3-(2-(4-(2,3-dichlorophenyl)piperazin-1-yl)ethyl)cyclobutyl)oxazole-2-carboxamide], for which, in data set [1], the “Remaining (%, 120 min)” value is on record as 29.2%; the half-life at 1 μM was 70.6 min; the microsomal CLint at 1 μM is 19.6 µL/min/mg. Also, in data set [2], the “Remaining (%, 120 min)” value is on record as 25.4%; the half-life at 1 μM came to 60 min; the microsomal CLint at 1 μM was determined as 23.1 µL/min/mg. In data set [3], the “Remaining (%, 120 min)” value was 42.8%; the half-life at 1 μM was found to be 106 min; the microsomal CLint at 1 μM was determined as 13.1 µL/min/mg.

`Cc1cc(C(=O)N[C@H]2C[C@H](CCN3CCN(c4cccc(Cl)c4Cl)CC3)C2)on1` [Example 22A]: the EC50 on D3 receptor is 0.9 nM. In addition, the results for the IC50 (on 5-HT2A receptor [4]; at 5-HT2A receptor [5]; in data set [6]) were 4.37 nM, 1.35 nM and 0.34 nM, respectively.

At D3 receptor, `Cc1ncc(C(=O)N[C@H]2C[C@H](CCN3CCN(c4cccc(Cl)c4Cl)CC3)C2)o1` [Example 24A] came in with a 50% effective concentration (EC50) of 1.7 nM. Moreover, the IC50 on 5-HT2A receptor [4] was determined as 4.28 nM; on 5-HT2A receptor [5] it was 1.8 nM; in data set [6] it was 0.33 nM.
